# Source: patent EP1568368A1, “Pharmaceutical combination comprising a CDK inhibitor and a VEGF receptor inhibitor” (Schering Aktiengesellschaft, priority 2004, dated 2005)
# System: MaTu estrogen-independent human mammary carcinoma cells
# Test: MaTu human estrogen-independent mammary carcinoma xenograft model, tumor growth inhibition (tumor area by caliper)
# Type: in vivo, NMRI nude mice
# Design: inhibition of the growth of the MaTu xenograft model: dose or concentration left out as unconfirmed
# Settings: monotherapy
# Protocol: MaTu (EPO-GmbH, Berlin) estrogen-independent human mammary carcinoma cells, obtained from cell culture, were implanted s.c. in the inguinal region of femal NMRI nude mice. Treatment was started when the tumors were approximately 20 mm^2 in size. The groups were closed when the tumors within a treatment group reached a size of approximately 100 mm^2.
# Experimental groups included the following: • 1) Control vehicle • 2) a CDK inhibitor ([…]) • 3) a VEGF-R inhibitor (50 mg/kg, p.o. twice daily, d4-d21) • 4) a CDK inhibitor ([…]) in combination with a VEGF-R inhibitor (50 mg/kg, p.o. twice daily, d4-d21) CDK inhibitor = N-[5-[[[5-(1,1-dimethylethyl)-2-oxazolyl] methyl]thio]-2-thiazolyl]-4-piperidinecarboxamide VEGF-R inhibitor = (4-Chlorophenyl)[4-(4-pyridylmethyl)phthalazin-1-yl]ammonium hydrogen succinate
# Tumor area was determined by caliper measurement twice weekly. The example was designed to determine the initial response of a human estrogen-independent mammary carcinoma xenograft model to treatment with a specific CDK inhibitor, to treatment with a specific VEGF-R inhibitor, and to treatment with a combination of a CDK inhibitor together with a VEGF-R inhibitor. The tumor growth inhibiting effect of the compounds was investigated in the MaTu human estrogen-independent mammary carcinoma model, xenografted in NMRI nude mice. […]
Compound,"inhibition of the growth of the MaTu xenograft model (i.p. once daily, d4-d21, s.c. xenograft in female NMRI nude mice)","inhibition of tumor growth (50 mg/kg p.o. twice daily, d4-d21, s.c. MaTu xenograft in female NMRI nude mice)"
"CC(C)(C)c1cnc(CSc2cnc(NC(=O)C3CCNCC3)s2)o1 [CDK inhibitor, N-[5-[[[5-(1,1-dimethylethyl)-2-oxazolyl]methyl]thio]-2-thiazolyl]-4-piperidinecarboxamide]",ineffective,–
"Clc1ccc(Nc2nnc(Cc3ccncc3)c3ccccc23)cc1.O=C(O)CCC(=O)O [VEGF-R inhibitor, (4-Chlorophenyl)[4-(4-pyridylmethyl)phthalazin-1-yl]ammonium hydrogen succinate]",–,initially an inhibition of tumor growth
